Where two headings read alike, the source gives them in different places.
Assays:
H^+ /K^+ -ATPase = biological target: T1, H^+ /K^+ -ATPase (Oryctolagus cuniculus, UniProt P27112); assay: Inhibition of H+/K+-ATPase enzyme activity in vitro; type: biochemical, rabbit; conditions: 5 min pre-incubation at 37° C., 4 mM ATP
T1 construct: The gastric mucous membrane was removed from rabbit; from tissue; host or cells: rabbit gastric mucosa, microsomal fraction (77,000 xg)
Protocol: The gastric mucous membrane was removed from rabbit and then centrifuged with 77,000 xg using a ultracentrifuge to separate the microsomal fraction which was used as the source of H^+ /K^+ -ATPase enzyme for this test. 60 μg of H^+ /K^+ -ATPase was pre-incubated with the sample (the compound according to the present invention) for 5 minutes at 37° C. and then 4 mM ATP as the substrate and 4 mM Mg^++, 20 mM K^+ as the cofactor were added thereto. Then, the amount of inorganic phosphorus thus produced was determined using a spectrophotometer at 660 nm and converted into the amount of protein according to Lowry method. […]

gastric juice secretion = assay: Inhibition of gastric juice secretion, Shay method; type: in vivo, SD male rats; conditions: intraduodenal, rat, 5 h; for Inhibition rate, gastric juice secretion: vs normal group
Protocol: (§1) The specific test methods are as follows.
(§2) SD male rats (200±20 g) were fasted for 24 hours, except for water, and then anesthesized with ether. The abdomen of rats was incised and then the pylorus was ligated. The test compounds were suspended or dissolved in […] (carboxymethylcellulose) and injected into duodenum. After the abdomen was suctured, the rats were allowed to stand for 5 hours and then sacrificed with ether. The stomach was removed from rats and the gastric juices were collected. The gastric juice was centrifuged with 10,000×g for 10 minutes at 4° C. to remove the precipitate. The amount of gastric juice and acidity were determined using pH 7.0 end point assay with 0.02N NaOH and then the total acid output was calculated.

acidity = assay: Inhibition of acidity (total acid output), Shay method; type: in vivo, SD male rats; conditions: intraduodenal, rat, 5 h; for Inhibition rate, acidity: vs normal group
Protocol: as §1, §2

[1] = rabbit gastric microsomal H+/K+-ATPase, read-out: IC50

T1 sequence (P27112 2-1035 limits assumed): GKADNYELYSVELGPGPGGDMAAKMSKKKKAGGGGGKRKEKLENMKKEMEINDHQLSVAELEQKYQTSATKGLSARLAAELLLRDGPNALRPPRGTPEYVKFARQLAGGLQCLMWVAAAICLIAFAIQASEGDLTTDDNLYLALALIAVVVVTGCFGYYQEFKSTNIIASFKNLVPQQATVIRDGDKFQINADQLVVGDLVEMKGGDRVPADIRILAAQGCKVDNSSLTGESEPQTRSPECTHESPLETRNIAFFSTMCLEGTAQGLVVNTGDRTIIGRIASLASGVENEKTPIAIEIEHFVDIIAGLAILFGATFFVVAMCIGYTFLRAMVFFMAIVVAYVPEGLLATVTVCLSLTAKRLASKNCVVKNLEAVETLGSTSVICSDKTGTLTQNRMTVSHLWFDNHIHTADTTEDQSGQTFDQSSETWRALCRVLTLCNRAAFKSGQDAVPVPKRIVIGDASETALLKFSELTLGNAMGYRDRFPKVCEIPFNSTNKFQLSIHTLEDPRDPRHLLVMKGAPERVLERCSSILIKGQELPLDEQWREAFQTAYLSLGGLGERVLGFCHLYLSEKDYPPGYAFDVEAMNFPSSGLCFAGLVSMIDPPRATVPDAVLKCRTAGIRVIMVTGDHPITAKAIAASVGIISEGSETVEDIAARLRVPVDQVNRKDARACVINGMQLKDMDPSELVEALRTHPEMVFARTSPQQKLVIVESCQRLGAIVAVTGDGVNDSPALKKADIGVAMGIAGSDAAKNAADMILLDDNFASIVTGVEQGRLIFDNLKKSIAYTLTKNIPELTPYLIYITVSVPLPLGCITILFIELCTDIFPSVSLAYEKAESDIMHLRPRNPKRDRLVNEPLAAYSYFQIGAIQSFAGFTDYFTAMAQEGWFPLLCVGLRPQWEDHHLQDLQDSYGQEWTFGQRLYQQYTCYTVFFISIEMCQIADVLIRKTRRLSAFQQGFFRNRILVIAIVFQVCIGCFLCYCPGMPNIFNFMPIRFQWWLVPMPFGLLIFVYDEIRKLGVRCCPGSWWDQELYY
T1 sequence (P18597 whole entry partner): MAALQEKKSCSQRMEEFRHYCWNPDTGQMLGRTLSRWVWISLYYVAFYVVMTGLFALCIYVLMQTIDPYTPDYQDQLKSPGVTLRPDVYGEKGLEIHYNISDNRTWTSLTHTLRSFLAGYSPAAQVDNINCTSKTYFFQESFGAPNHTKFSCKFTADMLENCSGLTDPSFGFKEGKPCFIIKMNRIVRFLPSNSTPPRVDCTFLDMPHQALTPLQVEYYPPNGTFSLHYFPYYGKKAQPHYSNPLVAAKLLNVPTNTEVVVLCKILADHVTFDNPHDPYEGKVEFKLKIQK

IC50 (H^+ /K^+ -ATPase; [1]) [µM] | SMILES | further results
420 | COc1ccnc(CSc2nc3cc(-n4cccc4)c(F)cc3[nH]2)c1C [Compound 1, 2-[[(4-methoxy-3-methyl)-2-pyridinyl]methylthio]-5-(1H-pyrrol-1-yl)-6-fluoro-1H-benzimidazole] | 
2000 | COc1cc(C[S+]([O-])c2nc3cc(-n4cccc4)c(F)cc3[nH]2)ncc1C (centres unmarked) [Compound 3] | 
430 | COc1c(C)cnc(C[S+]([O-])c2nc3cc(-n4cccc4)c(F)cc3[nH]2)c1C (centres unmarked) [Compound 4] | 
< 40 | CCOc1ccnc(C[S+]([O-])c2nc3cc(-n4cccc4)c(F)cc3[nH]2)c1C (centres unmarked) [Compound 5] | Gastric juice volume (gastric juice secretion; 10 mg/kg): 1.63 ± 0.04 ml/100 g BW; Inhibition rate, gastric juice secretion (gastric juice secretion; 10 mg/kg): 42.40%; Gastric juice volume (gastric juice secretion; 30 mg/kg): 1.21 ± 0.10 ml/100 g BW; Inhibition rate, gastric juice secretion (gastric juice secretion; 30 mg/kg): 57.24%; Volume (inhibition of acidity) (acidity; 10 mg/kg): 21.85 ± 2.44 μEq/hr; Inhibition rate, acidity (acidity; 10 mg/kg): 66.78%; Volume (inhibition of acidity) (acidity; 30 mg/kg): 11.84 ± 4.00 μEq/hr; Inhibition rate, acidity (acidity; 30 mg/kg): 82.00%
28 | CCOCCOc1ccnc(C[S+]([O-])c2nc3cc(-n4cccc4)c(F)cc3[nH]2)c1C (centres unmarked) [Compound 6, 2-[[(4-(2-ethoxyethoxy)-3-methyl)-2-pyridinyl]methylsulfinyl]-5-(1H-pyrrol-1-yl)-6-fluoro-1H-benzimidazole] | 
290 | COc1ccnc(C[S+]([O-])c2nc3cc(-n4cccc4)c(F)cc3[nH]2)c1OC (centres unmarked) [Compound 7] | 
1900 | COc1ccnc(C[S+]([O-])c2nc3cc(-n4cccc4)c(F)cc3[nH]2)c1 (centres unmarked) [Compound 8] | 
4700 | [O-][S+](Cc1ccccn1)c1nc2cc(-n3cccc3)c(F)cc2[nH]1 (centres unmarked) [Compound 9] | 
9300 | Cc1cnc(C[S+]([O-])c2nc3cc(-n4cccc4)c(F)cc3[nH]2)c(C)c1OCC(F)(F)C(F)(F)F (centres unmarked) [Compound 11] | 
150 | Cc1c(OCC(F)(F)C(F)(F)F)ccnc1C[S+]([O-])c1nc2cc(-n3cccc3)c(F)cc2[nH]1 (centres unmarked) [Compound 12] | 
 | Cc1c(OCC(F)(F)C(F)(F)C(F)(F)F)ccnc1C[S+]([O-])c1nc2cc(-n3cccc3)c(F)cc2[nH]1 (centres unmarked) [Compound 13] | IC50 (H^+ /K^+ -ATPase; IC50, rabbit gastric microsomal H+/K+-ATPase): 470 µM
5300 | Cc1c(OCC(F)(F)C(F)(F)F)ccnc1CS(=O)(=O)c1nc2cc(-n3cccc3)c(F)cc2[nH]1 [Compound 14] | 

From patent publication US5554631A, “5-pyrrolyl-6-halogeno-2-pyridylmethylsulfinyl benzimidazole derivatives” (Il-Yang Pharm. Co., Ltd., priority 1994, dated 1996)
